“Also recorded” adds a separate entry of the source. Where two headings read alike, the source gives them in different places. One block for each compound: values may come before it.
Experiments:
[1] = test system: MON (INI1−/−) rhabdoid tumor cells; experiment: MTS survival assay of rhabdoid tumor cells; format: cell-based; settings: for cytotoxic activity against rhabdoid tumor cells (in words): compared with 4-HPR
Protocol: FIG. 1A-1D. Effect of 4HPR derivatives with phenyl group substitutions on survival of rhabdoid tumors cells. MON (INI1−/−) cells were treated with serial dilutions of the 4HPR, ATRA and 4HPR derivatives for three days. Survival assay was carried out as described using MTS assay kit. Percentage of cell survival plotted against concentration of drugs (Mean+/−SEM).
FIG. 2. Effect of fenretinide peptidomimitic derivatives on the survival of rhabdoid tumor cells in culture. % survival of MON rhabdoid tumor cells treated with fenretinide derivatives, when compared to the vehicle treated control. The data in all the panels represent the average of triplicate experiments, and the standard error is indicated.
(§1) The rhabdoid cell line (MON) (88) was cultured in RPMI 1640 supplemented with 10% fetal bovine serum, 2 mM L-glutamine, 50 U/ml penicillin, and 50 μg/ml streptomycin at 37° C. with 5% CO2 and 95% humidified air. 4-(Fenretinide) was either obtained from NCI or synthesized in house. Fenretinide or its synthetic derivatives were reconstituted in 100% ethanol as a 10 mM solution and the aliquots were stored frozen at −80° C., protected from light. Working solutions (50 μM or 200 μM) and serial dilutions were prepared by diluting the stock solution with culture medium, such that the concentration of ethanol was <2% in all dilutions.
Aliquots of 8×10^3 MON cells were plated in 96-well microdilution plates. Twenty four hours after seeding, the cells were treated with serial dilutions of each drug. Following incubation for 24 or more hours, each well was stained with 20 μl of MTS [3-(4,5-dimethylthiazol-2-yl)-5-(3-carboxymethoxyphenyl)-2-(4-sulfophenyl)-2H-tetrazolium, inner salt] that was mixed 20:1 V/V in PMS (phenazine methosulphate, CellTiter 96® AQueous Non-Radioactive Cell Proliferation Assay Kit, Promega, Madison, Wis.) added to each of the well in the microtiter plate containing 100 μl of culture medium. After 4 h incubation, the plates were analyzed by an ELISA plate reader (Wallac Victor, 1420 Multilabel Counter, Perkin Elmer) at 490 nm wave-length. Cell plating, drug treatment and survival assay were performed using the epMotion 5070 automated liquid handling robotic system (Eppendorff, Westbury, N.Y.).
Statistical analysis of the data was carried out using GraphPad Prism (San Diego, Calif.). Relative IC50 values were calculated using the nonlinear regression curve fit with sigmoidal dose response (variable slope) function. Relative IC50 is defined as the concentration giving a response exactly half way between the fitted top and bottom of the survival curve when graphed as percent inhibition versus the log of the concentration of compound. The fitting error, or standard error describes the error involved in fitting the curve.

MON cells = experiment: FACS analysis of cell cycle and sub-G1 (apoptosis); format: cell-based; settings: 2 days
Protocol: (§2) FIG. 3A-3B. Induction of cell cycle arrest and apoptosis by halogen derivatives of fenretinide. A. Cell cycle profile determined by FACS analysis of MON cells treated with either 5 or 10 μM concentrations of fenretinide and its derivatives for 2 days. Percentage of cells at various stages of cell cycle (G1, S and G2) is indicated. B. Percentage of MON cells at sub-G1 when exposed for 2 days to fenretinide and its derivatives.
as §2, with “4A-4B.” for “3A-3B.”, “peptidomimetic” for “halogen”
(§3) The effects of fenretinide, halogen substitutes, and peptidomimetic derivatives on cell cycle regulation and apoptosis were tested by using: i) cell survival assay (MTS); ii) FACS analysis; and iii) immunoblot analysis to determine the effect on Cyclin D1.

[2] = test system: MON (INI1−/−) rhabdoid tumor cells; experiment: MTS survival assay of rhabdoid tumor cells; format: cell-based; settings: charcoal adsorbed serum
[3] = Precipitation / solubility in cell culture medium; format: physicochemical
Protocol: as §1

Cyclin D1 = experiment: Immunoblot analysis of Cyclin D1 expression; format: cell-based; settings: for Repression of Cyclin D1: biomarker expression, Table 3
Protocol: FIG. 5A-5B. Effect of fenretinide, its derivatives and peptidomimetic compounds on expression of Cyclin D1. Immunoblot analysis to determine the effect of fenretinide and its halogen substitutes (A) and peptidomimetic compounds (B). GAPDH is a loading control.
This assay was performed using a routine laboratory protocol as previously described using chemiluminescence detection method (30). The following antibodies were used: polyclonal α-cyclin D1 Ab-3 (NeoMarkers, Cat# RB-010-P0), monoclonal α-cyclin D1 DCS-6 (NeoMarkers, Cat# MS-210-P1), α-β-Actin (Sigma Cat# A5441) and α-Tubulin-α (Sigma, Cat # T5168).
as §3

[4] = 72 h, MON cells, three days, compounds in FIG. 1A-1D, concentration of drug required to kill 50% of cells, read-out: IC50
[5] = MON rhabdoid cells, survival assay, values in text, read-out: IC50
[6] = regular FBS, read-out: IC50 (in regular FBS)
[7] = MON cells, three days, compounds in FIG. 1A-1D, concentration of drug required to kill 50% of cells, read-out: IC50

Compound: CC1=C(/C=C/C(C)=C/C=C/C(C)=C/C(=O)Nc2ccc(F)cc2)C(C)(C)CCC1 [5(a)]
IC50 [1, 4]: 150 µM | IC50 [1, 5]: ≥ 150 µM | IC50 [1, 6]: > 50 µM | % G1 (MON cells; 5 μM, Table 5): 78.56% | % G2 (MON cells; 5 μM, Table 5): 14.61% | % S (MON cells; 5 μM, Table 5): 6.84% | SubG1 (percentage of MON cells at sub-G1) (MON cells; 5 μM, Table 5): 8.30% | % G1 (MON cells; 10 μM, Table 5): 65.50% | % G2 (MON cells; 10 μM, Table 5): 27.25% | % S (MON cells; 10 μM, Table 5): 7.25% | SubG1 (percentage of MON cells at sub-G1) (MON cells; 10 μM, Table 5): 9.44% | IC50 [2]: > 15 µM

Compound: CC1=C(/C=C/C(C)=C/C=C/C(C)=C/C(=O)Nc2ccc(Cl)cc2)C(C)(C)CCC1 [5(b), (2E,4E,6E,8E)-[3,7-Dimethyl-9-(2,6,6-trimethyl-1-cyclohexenyl)-nona-2,4,6,8-tetraenoylamino]-(4-chloro)phenylamide]
IC50 [1, 4]: > 200 µM | IC50 [1, 5]: ≥ 150 µM

behaviour in cell culture medium (precipitation / insolubility) [3]: insoluble in cell culture medium
Compound: COc1ccc(NC(=O)/C=C(C)/C=C/C=C(C)/C=C/C2=C(C)CCCC2(C)C)cc1 [5(f), (2E,4E,6E,8E)-[3,7-Dimethyl-9-(2,6,6-trimethyl-1-cyclohexenyl)-nona-2,4,6,8-tetraenoylamino]-(4-methoxy)phenylamide]

Compound: CC1=C(/C=C/C(C)=C/C=C/C(C)=C/C(=O)Nc2ccc(O)c(F)c2)C(C)(C)CCC1 [5(h), (2E,4E,6E,8E)-[3,7-Dimethyl-9-(2,6,6-trimethyl-1-cyclohexenyl)-nona-2,4,6,8-tetraenoylamino]-(3-fluoro,4-hydroxy)phenylamide]
IC50 [1, 4]: 8 µM | IC50 [1, 5]: 8 µM | IC50 [1, 6]: 8 µM | Repression of Cyclin D1 (Cyclin D1): Yes | % G1 (MON cells; 5 μM, Table 5): 87.23% | % G2 (MON cells; 5 μM, Table 5): 7.10% | % S (MON cells; 5 μM, Table 5): 5.67% | SubG1 (percentage of MON cells at sub-G1) (MON cells; 5 μM, Table 5): 38.78% | % G1 (MON cells; 10 μM, Table 5): 87.22% | % G2 (MON cells; 10 μM, Table 5): 6.97% | % S (MON cells; 10 μM, Table 5): 5.81% | SubG1 (percentage of MON cells at sub-G1) (MON cells; 10 μM, Table 5): 50.79%

Compound: CC1=C(/C=C/C(C)=C/C=C/C(C)=C/C(=O)Nc2ccc(O)c(Cl)c2)C(C)(C)CCC1 [5(i), (2E,4E,6E,8E)-[3,7-Dimethyl-9-(2,6,6-trimethyl-1-cyclohexenyl)-nona-2,4,6,8-tetraenoylamino]-(3-chloro, 4-hydroxy)phenylamide]
IC50 [1, 4]: 12.5 µM | IC50 [1, 5]: 10 µM | IC50 [1, 6]: 10 µM | Repression of Cyclin D1 (Cyclin D1): Yes | IC50 [2]: 1.5 µM

Compound: CC1=C(/C=C/C(C)=C/C=C/C(C)=C/C(=O)Nc2ccc(O)c(I)c2)C(C)(C)CCC1 [5(j), (2E,4E,6E,8E)-[3,7-Dimethyl-9-(2,6,6-trimethyl-1-cyclohexenyl)-nona-2,4,6,8-tetraenoylamino]-(3-Iodo, 4-hydroxy)phenylamide]
IC50 [1, 4]: 3 µM | IC50 [1, 5]: ~3 µM | cytotoxic activity against rhabdoid tumor cells (in words) [1]: more active when compared to parent Fenretinide | IC50 [1, 6]: 3 µM | Repression of Cyclin D1 (Cyclin D1): Yes | % G1 (MON cells; 5 μM, Table 5): 86.11% | % G2 (MON cells; 5 μM, Table 5): 7.83% | % S (MON cells; 5 μM, Table 5): 6.06% | SubG1 (percentage of MON cells at sub-G1) (MON cells; 5 μM, Table 5): 26.48% | % G1 (MON cells; 10 μM, Table 5): 87.97% | % G2 (MON cells; 10 μM, Table 5): 6.87% | % S (MON cells; 10 μM, Table 5): 5.16% | SubG1 (percentage of MON cells at sub-G1) (MON cells; 10 μM, Table 5): 34.21% | IC50 [2]: 0.8 µM

Compound: CC1=C(/C=C/C(C)=C/C=C/C(C)=C/C(=O)Nc2ccc(O)cc2O)C(C)(C)CCC1 [5(n), (2E,4E,6E,8E)-[3,7-Dimethyl-9-(2,6,6-trimethyl-1-cyclohexenyl)-nona-2,4,6,8-tetraenoylamino]-(2,4-dihydroxy)phenylamide]
IC50 [1, 4]: 8 µM | IC50 [1, 5]: 8 µM | cytotoxic activity against rhabdoid tumor cells (in words) [1]: retains 4-HPR activity | IC50 [1, 6]: 8 µM | % G1 (MON cells; 5 μM, Table 5): 85.42% | % G2 (MON cells; 5 μM, Table 5): 8.48% | % S (MON cells; 5 μM, Table 5): 6.11% | SubG1 (percentage of MON cells at sub-G1) (MON cells; 5 μM, Table 5): 25.81% | % G1 (MON cells; 10 μM, Table 5): 88.30% | % G2 (MON cells; 10 μM, Table 5): 6.05% | % S (MON cells; 10 μM, Table 5): 5.65% | SubG1 (percentage of MON cells at sub-G1) (MON cells; 10 μM, Table 5): 43.53%

Compound: CC1=C(/C=C/C(C)=C/C=C/C(C)=C/C(=O)O)C(C)(C)CCC1 [ATRA, All-trans retinoic acid, reference compound]
IC50 [1, 4]: 100 µM | IC50 [1, 5]: 100 µM | cytotoxic activity against rhabdoid tumor cells (in words) [1]: did not have appreciable cytotoxic activity; also recorded: did not exhibit activities against rhabdoid tumor cells | IC50 [1, 6]: > 50 µM | Repression of Cyclin D1 (Cyclin D1): No | down modulation of Cyclin D1 (in words) (Cyclin D1; rhabdoid tumor cells): unable to down modulate Cyclin D1 | % G1 (MON cells; 5 μM, Table 5): 82.64% | % G2 (MON cells; 5 μM, Table 5): 11.04% | % S (MON cells; 5 μM, Table 5): 6.32% | SubG1 (percentage of MON cells at sub-G1) (MON cells; 5 μM, Table 5): 8.22% | % G1 (MON cells; 5 μM, Table 6): 82.64% | % G2 (MON cells; 5 μM, Table 6): 9.07% | % S (MON cells; 5 μM, Table 6): 8.58% | SubG1 (percentage of MON cells at sub-G1) (MON cells; 5 μM, Table 6): 8.22% | % G1 (MON cells; 10 μM, Table 5): 82.08% | % G2 (MON cells; 10 μM, Table 5): 11.21% | % S (MON cells; 10 μM, Table 5): 6.71% | SubG1 (percentage of MON cells at sub-G1) (MON cells; 10 μM, Table 5): 9.27% | % G1 (MON cells; 10 μM, Table 6): 82.08% | % G2 (MON cells; 10 μM, Table 6): 8.18% | % S (MON cells; 10 μM, Table 6): 8.51% | SubG1 (percentage of MON cells at sub-G1) (MON cells; 10 μM, Table 6): 9.27% | IC50 [2]: > 15 µM

Compound: CCC1=C(C)/C(=C/c2ccc(C(=O)O)cc2)CCC1(C)C [Compound 8]
IC50 ([1]; MON cells, nonlinear regression, sigmoidal dose response, read-out: Relative IC50): > 50 µM | IC50 [1, 5]: > 50 µM

behaviour in cell culture medium (precipitation / insolubility) [3]: precipitated in cell culture medium
Compound: CCC1=C(C)/C(=C/c2ccc(C(=O)Nc3ccc(O)cc3)cc2)CCC1(C)C [Compound 11a, (E)-4-((3-ethyl-2,4,4-trimethylcyclohex-2-enylidene)methyl)-N-(4-hydroxyphenyl)benzamide]
% G1 (MON cells; 5 μM, Table 6): 59.33% | % G2 (MON cells; 5 μM, Table 6): 26.19% | % S (MON cells; 5 μM, Table 6): 14.49% | SubG1 (percentage of MON cells at sub-G1) (MON cells; 5 μM, Table 6): 53.97% | % G1 (MON cells; 10 μM, Table 6): 60.40% | % G2 (MON cells; 10 μM, Table 6): 22.84% | % S (MON cells; 10 μM, Table 6): 16.76% | SubG1 (percentage of MON cells at sub-G1) (MON cells; 10 μM, Table 6): 62.59%

behaviour in cell culture medium (precipitation / insolubility) [3]: insoluble in cell culture medium
Compound: (2E,4E,6E,8E)-[3,7-Dimethyl-9-(2,6,6-trimethyl-1-cyclohexenyl)-nona-2,4,6,8-tetraenoylamino]-(3-nitro, 4-hydroxy)phenylamide [5(k)]

Compound: (2E,4E,6E,8E)-[3,7-Dimethyl-9-(2,6,6-trimethyl-1-cyclohexenyl)-nona-2,4,6,8-tetraenoylamino]-(4-bromo)phenylamide [5(c)]
IC50 [1, 7]: 150 µM

Compound: (2E,4E,6E,8E)-[3,7-Dimethyl-9-(2,6,6-trimethyl-1-cyclohexenyl)-nona-2,4,6,8-tetraenoylamino]-(4-ethylalcohol)phenylamide [5(m)]
IC50 [1, 7]: > 50 µM | cytotoxic activity against rhabdoid tumor cells (in words) [1]: lack of activity

Compound: (2E,4E,6E,8E)-[3,7-Dimethyl-9-(2,6,6-trimethyl-1-cyclohexenyl)-nona-2,4,6,8-tetraenoylamino]-(4-nitro)phenylamide [5(e)]
IC50 [1, 7]: > 200 µM | IC50 [1, 5]: > 200 µM

Compound: (2E,4E,6E,8E)-[3,7-Dimethyl-9-(2,6,6-trimethyl-1-cyclohexenyl)-nona-2,4,6-tetraenoylamino]-(4-alcohol)phenylamide [5(l)]
IC50 [1, 7]: 25 µM | cytotoxic activity against rhabdoid tumor cells (in words) [1]: lack of activity

Reference: US8460635B2, “Fenretinide derivatives and uses thereof as therapeutic, diagnostic and imaging agents” (Albert Einstein College of Medicine of Yeshiva University, priority 2008, dated 2013)
